According to the supplement of paper PMC10307832:

These cell lines were tested with CCN1CCN(c2ccc(Nc3cc(N(C)C(=O)Nc4c(Cl)c(OC)cc(OC)c4Cl)ncn3)cc2)CC1 [BGJ398] + NC(=O)Nc1cc(-c2cccc(F)c2)sc1C(=O)N[C@H]1CCCNC1 [AZD7762] (partner 0.2 µM) (assay: relative viability (nuclei count vs DMSO), 5 days (fraction); higher = more cells survive). Conditions: first compound 0.01 µM.
Summary of the method: (§1)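 Lung cancer cell lines were seeded in 1536-well plates and dosed by pin tool the next day, with either a single drug or a fixed anchor-drug dose combined with five library-drug doses (not always all listed) spaced in √10 steps. Five days later, one step fixed the cells and stained their nuclei (final 0.05% Triton X-100, 1% formaldehyde, 1 ug/ml Hoechst), and nuclei were counted on 4× images. Relative viability is the nuclei count in treated wells divided by the count in vehicle wells, and each value is the median of duplicate plates.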
NCI-H522 gave a relative viability of 0.864.
For NCI-H727, the relative viability was 0.996.
NCI-H1703 gave a relative viability of 0.117.
NCI-H1993 gave a relative viability of 0.953.
In the case of NCI-H838, the relative viability is reported as 0.861.
Work on LCLC-103H yielded a relative viability of 0.796.
For NCI-H2126, the relative viability was 1.08.
With EMC-BAC-2 the relative viability was 1.09.
NCI-H2085 was tested, and the relative viability was 1.04.
With HCC-366 the relative viability was 0.235.
NCI-H1666 showed a relative viability of 0.95.
NCI-H596 showed a relative viability of 1.1.
Cell Line LK-2 has a relative viability of 0.296.
For NCI-H2087, the relative viability was 1.13.
NCI-H2342 gave a relative viability of 0.513.
Cell Line H3255 has a relative viability of 0.837.
For LOU-NH91, the relative viability was 0.753.
With ChaGo-K-1 the relative viability was 0.904.
With NCI-H2170 the relative viability was 0.906.
Work on SW 900 yielded a relative viability of 0.757.
In the case of NCI-H1648, the relative viability is reported as 0.873.
CAL-12T was tested, and the relative viability was 0.656.

Same assay, conditions: first compound 0.03162 µM
Cell Line NCI-H522 has a relative viability of 0.686.
NCI-H727 was tested, and the relative viability was 0.693.
NCI-H1703 was tested, and the relative viability was 0.136.
For NCI-H1993, the relative viability was 0.85.
With NCI-H838 the relative viability was 0.915.
LCLC-103H showed a relative viability of 0.86.
In the case of NCI-H2126, the relative viability is reported as 1.05.
Cell Line EMC-BAC-2 has a relative viability of 1.18.
NCI-H2085 was tested, and the relative viability was 0.974.
For HCC-366, the relative viability was 0.301.
For NCI-H1666, the relative viability was 0.784.
NCI-H596 gave a relative viability of 0.993.
For LK-2, the relative viability was 0.329.
NCI-H2087 was tested, and the relative viability was 1.23.
For NCI-H2342, the relative viability was 0.565.
H3255 was tested, and the relative viability was 0.681.
LOU-NH91 gave a relative viability of 0.779.
ChaGo-K-1 was tested, and the relative viability was 0.85.
NCI-H2170 was tested, and the relative viability was 0.843.
SW 900 gave a relative viability of 0.514.
Cell Line CAL-12T has a relative viability of 0.664.

Same assay, conditions: first compound 0.1 µM
With NCI-H522 the relative viability was 0.812.
Work on NCI-H727 yielded a relative viability of 0.574.
For NCI-H1703, the relative viability was 0.111.
In the case of NCI-H1993, the relative viability is reported as 0.593.
NCI-H838 was tested, and the relative viability was 1.04.
In the case of LCLC-103H, the relative viability is reported as 0.804.
For NCI-H2126, the relative viability was 1.05.
Work on EMC-BAC-2 yielded a relative viability of 1.14.
In the case of NCI-H2085, the relative viability is reported as 0.948.
For HCC-366, the relative viability was 0.281.
With NCI-H1666 the relative viability was 0.866.
In the case of NCI-H596, the relative viability is reported as 0.893.
With LK-2 the relative viability was 0.16.
For NCI-H2087, the relative viability was 1.23.
NCI-H2342 was tested, and the relative viability was 0.542.
Work on H3255 yielded a relative viability of 1.01.
Work on LOU-NH91 yielded a relative viability of 0.752.
Work on ChaGo-K-1 yielded a relative viability of 0.903.
Cell Line NCI-H2170 has a relative viability of 1.01.
Work on SW 900 yielded a relative viability of 0.572.
For NCI-H1648, the relative viability was 0.759.
Cell Line CAL-12T has a relative viability of 0.698.

Same assay, conditions: first compound 0.3162 µM
NCI-H522 was tested, and the relative viability was 0.836.
In the case of NCI-H727, the relative viability is reported as 0.468.
NCI-H1703 gave a relative viability of 0.122.
With NCI-H1993 the relative viability was 0.94.
In the case of NCI-H838, the relative viability is reported as 0.782.
In the case of LCLC-103H, the relative viability is reported as 0.658.
NCI-H2126 showed a relative viability of 1.06.
Cell Line EMC-BAC-2 has a relative viability of 1.12.
NCI-H2085 gave a relative viability of 0.884.
Cell Line HCC-366 has a relative viability of 0.276.
For NCI-H1666, the relative viability was 0.703.
With NCI-H596 the relative viability was 0.911.
LK-2 was tested, and the relative viability was 0.165.
In the case of NCI-H2087, the relative viability is reported as 1.45.
Cell Line NCI-H2342 has a relative viability of 0.496.
With H3255 the relative viability was 0.78.
LOU-NH91 showed a relative viability of 0.664.
In the case of ChaGo-K-1, the relative viability is reported as 0.898.
NCI-H2170 was tested, and the relative viability was 0.861.
Work on SW 900 yielded a relative viability of 0.36.
Cell Line NCI-H1648 has a relative viability of 0.55.
CAL-12T showed a relative viability of 0.636.

Same assay, conditions: first compound 1 µM
Work on NCI-H522 yielded a relative viability of 0.853.
With NCI-H727 the relative viability was 0.486.
For NCI-H1703, the relative viability was 0.123.
In the case of NCI-H1993, the relative viability is reported as 0.803.
Cell Line NCI-H838 has a relative viability of 0.756.
LCLC-103H gave a relative viability of 0.656.
Cell Line NCI-H2126 has a relative viability of 1.03.
Work on EMC-BAC-2 yielded a relative viability of 1.04.
NCI-H2085 was tested, and the relative viability was 0.963.
For HCC-366, the relative viability was 0.252.
Cell Line NCI-H1666 has a relative viability of 0.728.
With NCI-H596 the relative viability was 0.799.
LK-2 gave a relative viability of 0.13.
NCI-H2087 showed a relative viability of 1.5.
Work on NCI-H2342 yielded a relative viability of 0.437.
Work on H3255 yielded a relative viability of 0.826.
For LOU-NH91, the relative viability was 0.762.
With ChaGo-K-1 the relative viability was 0.881.
For NCI-H2170, the relative viability was 0.912.
With SW 900 the relative viability was 0.532.
In the case of NCI-H1648, the relative viability is reported as 0.387.
CAL-12T was tested, and the relative viability was 0.625.

What follows are cell lines tested with C1=CC2=NC=CN=C2C=C1/C=C/3\C(=O)NC(=O)S3 + O=C(c1cc(Cc2n[nH]c(=O)c3ccccc23)ccc1F)N1CCN(C(=O)C2CC2)CC1 [Olaparib] (partner 8 µM) in the same assay as above. Conditions: first compound 0.02 µM.
Summary of the method: as §1
Cell Line NCI-H522 has a relative viability of 0.593.
Cell Line NCI-H727 has a relative viability of 0.852.
For NCI-H1650, the relative viability was 0.689.
In the case of EBC-1, the relative viability is reported as 0.626.
NCI-H1703 was tested, and the relative viability was 0.428.
NCI-H1993 was tested, and the relative viability was 0.976.
With SW 1573 the relative viability was 0.501.
NCI-H838 gave a relative viability of 0.731.
LCLC-103H was tested, and the relative viability was 0.75.
NCI-H520 showed a relative viability of 0.283.
NCI-H2126 was tested, and the relative viability was 0.932.
In the case of EMC-BAC-2, the relative viability is reported as 0.463.
NCI-H2085 showed a relative viability of 0.813.
In the case of Calu-6, the relative viability is reported as 0.602.
HCC-366 showed a relative viability of 0.318.
For NCI-H1666, the relative viability was 0.746.
NCI-H596 gave a relative viability of 0.712.
LK-2 showed a relative viability of 0.739.
Work on NCI-H2087 yielded a relative viability of 0.484.
In the case of NCI-H2342, the relative viability is reported as 0.396.
For SK-MES-1, the relative viability was 0.677.
Cell Line H3255 has a relative viability of 0.583.
With COR-L23 the relative viability was 0.273.
With COR-L 105 the relative viability was 0.674.
In the case of IA-LM, the relative viability is reported as 0.404.
With LOU-NH91 the relative viability was 0.845.
ChaGo-K-1 showed a relative viability of 0.385.
NCI-H2170 gave a relative viability of 0.55.
For A549, the relative viability was 0.284.
Cell Line SW 900 has a relative viability of 0.789.
NCI-H1648 was tested, and the relative viability was 0.795.
With NCI-H2009 the relative viability was 0.685.
Work on NCI-H661 yielded a relative viability of 0.682.
SK-LU-1 showed a relative viability of 0.477.
NCI-H1299 showed a relative viability of 1.01.
With CAL-12T the relative viability was 0.64.
With NCI-H2228 the relative viability was 0.666.
In the case of NCI-H2023, the relative viability is reported as 0.428.

Same assay, conditions: first compound 0.06325 µM
NCI-H522 was tested, and the relative viability was 0.561.
NCI-H727 gave a relative viability of 0.579.
NCI-H1650 gave a relative viability of 0.825.
EBC-1 showed a relative viability of 0.84.
With NCI-H1703 the relative viability was 0.405.
NCI-H1993 was tested, and the relative viability was 1.06.
SW 1573 showed a relative viability of 0.65.
NCI-H838 showed a relative viability of 0.872.
